Test results taken from ChEMBL document CHEMBL3885881, “DrugMatrix”.

Organism: Rattus norvegicus
Assay: DrugMatrix - Regimen: Daily Repeat
Type: toxicity, organism-based, Sprague-Dawley
Parameters: regimen Daily Repeat, gender Male, age 6-8 weeks
Conditions: in vivo, po, route oral GAVAGE, […]; for ABSOLUTE BASOPHIL / ABSOLUTE EOSINOPHIL / ABSOLUTE LYMPHOCYTE / ABSOLUTE MONOCYTE / ABSOLUTE SEGMENTED NEUTROPHIL / BASOPHIL / EOSINOPHIL / ERYTHROCYTE COUNT / HEMATOCRIT / HEMOGLOBIN / LEUKOCYTE COUNT / LYMPHOCYTE / MEAN CORPUSCULAR HEMOGLOBIN / MEAN CORPUSCULAR HEMOGLOBIN CONCENTRATION / MEAN CORPUSCULAR VOLUME / MONOCYTE / NEUTROPHIL / NUCLEATED RED BLOOD CELLS / PLATELET COUNT: tissue Blood; for ALANINE AMINOTRANSFERASE / ALBUMIN / ALKALINE PHOSPHATASE / ASPARTATE AMINOTRANSFERASE / BLOOD UREA NITROGEN / CARBON DIOXIDE / CHLORIDE / CHOLESTEROL / CREATINE PHOSPHOKINASE / CREATININE / GLUCOSE / LACTATE DEHYDROGENASE / LIPASE / PHOSPHORUS / POTASSIUM / SODIUM / TOTAL BILIRUBIN / TOTAL PROTEIN / URIC ACID: tissue Plasma
[1] = 30 mg/kg, 120 h, dose level Low, time 5 day
[2] = 1000 mg/kg, 72 h, dose level High, time 3 day
[3] = 1000 mg/kg, 120 h, dose level High, time 5 day

In the case of CCCCC(=O)N(Cc1ccc(-c2ccccc2-c2nnn[nH]2)cc1)[C@H](C(=O)O)C(C)C, the “ABSOLUTE BASOPHIL” value [1] is reported as 0 CELLS/uL, the “ABSOLUTE EOSINOPHIL” value [1] is reported as 0 CELLS/uL and the “ABSOLUTE LYMPHOCYTE” value [1] is reported as 14863.33 CELLS/uL. The “ABSOLUTE MONOCYTE” value [1] was 58.33 CELLS/uL, the “ABSOLUTE SEGMENTED NEUTROPHIL” value [1] was 1411.67 CELLS/uL and the BASOPHIL [1] was 0%. For the same compound, the EOSINOPHIL [1] was 0%, the “ERYTHROCYTE COUNT” value [1] was 5.54 x10E6/uL and the HEMATOCRIT [1] was 34.23%. The HEMOGLOBIN [1] was 13.5 G/DL, the “LEUKOCYTE COUNT” value [1] was 16.33 x10E3/uL and the LYMPHOCYTE [1] was 91%. The “MEAN CORPUSCULAR HEMOGLOBIN” value [1] was 24.4 pg, the “MEAN CORPUSCULAR HEMOGLOBIN CONCENTRATION” value [1] was 39.43 G/DL and the “MEAN CORPUSCULAR VOLUME” value [1] was 61.87 fL. For the same compound, the MONOCYTE [1] was 0.33%, the NEUTROPHIL [1] was 8.67% and the “NUCLEATED RED BLOOD CELLS” value [1] was 0 /100WBC. For the same compound, the “PLATELET COUNT” value [1] was 1196 x10E3/uL, the “ALANINE AMINOTRANSFERASE” value [1] was 63.67 u/L and the ALBUMIN [1] was 4.07 G/DL. For the same compound, the “ALKALINE PHOSPHATASE” value [1] was 455.33 u/L, the “ASPARTATE AMINOTRANSFERASE” value [1] was 87.33 u/L and the “BLOOD UREA NITROGEN” value [1] was 15.67 mg/dL. The “CARBON DIOXIDE” value [1] was 23.33 mmol/L, the CHLORIDE [1] was 102.33 MEQ/L and the CHOLESTEROL [1] was 63 mg/dL. The “CREATINE PHOSPHOKINASE” value [1] was 339 u/L, the CREATININE [1] was 0.18 mg/dL and the GLUCOSE [1] was 206.33 mg/dL. For the same compound, the “LACTATE DEHYDROGENASE” value [1] was 183 u/L, the LIPASE [1] was 9.33 u/L and the PHOSPHORUS [1] was 12.9 mg/dL. For the same compound, the POTASSIUM [1] was 6.08 MEQ/L, the SODIUM [1] was 140.77 MEQ/L and the “TOTAL BILIRUBIN” value [1] was 0.13 mg/dL. For the same compound, the “TOTAL PROTEIN” value [1] was 5.6 G/DL, the “URIC ACID” value [1] was 2.2 mg/dL and the “ABSOLUTE BASOPHIL” value [2] was 0 CELLS/uL. For the same compound, the “ABSOLUTE EOSINOPHIL” value [2] was 0 CELLS/uL, the “ABSOLUTE LYMPHOCYTE” value [2] was 6741.67 CELLS/uL and the “ABSOLUTE MONOCYTE” value [2] was 52 CELLS/uL. The “ABSOLUTE SEGMENTED NEUTROPHIL” value [2] was 673 CELLS/uL, the BASOPHIL [2] was 0% and the EOSINOPHIL [2] was 0%. For the same compound, the “ERYTHROCYTE COUNT” value [2] was 5.05 x10E6/uL, the HEMATOCRIT [2] was 31% and the HEMOGLOBIN [2] was 12.27 G/DL. For the same compound, the “LEUKOCYTE COUNT” value [2] was 7.47 x10E3/uL, the LYMPHOCYTE [2] was 90.67% and the “MEAN CORPUSCULAR HEMOGLOBIN” value [2] was 24.33 pg. The “MEAN CORPUSCULAR HEMOGLOBIN CONCENTRATION” value [2] was 39.6 G/DL, the “MEAN CORPUSCULAR VOLUME” value [2] was 61.43 fL and the MONOCYTE [2] was 0.67%. For the same compound, the NEUTROPHIL [2] was 8.67%, the “NUCLEATED RED BLOOD CELLS” value [2] was 0 /100WBC and the “PLATELET COUNT” value [2] was 1278.67 x10E3/uL. For the same compound, the “ALANINE AMINOTRANSFERASE” value [2] was 56.67 u/L, the ALBUMIN [2] was 3.8 G/DL and the “ALKALINE PHOSPHATASE” value [2] was 381.67 u/L. For the same compound, the “ASPARTATE AMINOTRANSFERASE” value [2] was 79.67 u/L, the “BLOOD UREA NITROGEN” value [2] was 47.33 mg/dL and the “CARBON DIOXIDE” value [2] was 23 mmol/L. For the same compound, the CHLORIDE [2] was 100.67 MEQ/L, the CHOLESTEROL [2] was 69.33 mg/dL and the “CREATINE PHOSPHOKINASE” value [2] was 401 u/L. For the same compound, the CREATININE [2] was 0.56 mg/dL, the GLUCOSE [2] was 149 mg/dL and the “LACTATE DEHYDROGENASE” value [2] was 105.67 u/L. It also gave an LIPASE [2] of 10 u/L, a PHOSPHORUS [2] of 9.53 mg/dL and a POTASSIUM [2] of 7.33 MEQ/L. The SODIUM [2] was 138.9 MEQ/L, the “TOTAL BILIRUBIN” value [2] was 0.2 mg/dL and the “TOTAL PROTEIN” value [2] was 5.27 G/DL. For the same compound, the “URIC ACID” value [2] was 1.17 mg/dL, the “ABSOLUTE BASOPHIL” value [3] was 0 CELLS/uL and the “ABSOLUTE EOSINOPHIL” value [3] was 82 CELLS/uL. For the same compound, the “ABSOLUTE LYMPHOCYTE” value [3] was 18525.33 CELLS/uL, the “ABSOLUTE MONOCYTE” value [3] was 112.67 CELLS/uL and the “ABSOLUTE SEGMENTED NEUTROPHIL” value [3] was 746.67 CELLS/uL. For the same compound, the BASOPHIL [3] was 0%, the EOSINOPHIL [3] was 0.33% and the “ERYTHROCYTE COUNT” value [3] was 5.79 x10E6/uL. For the same compound, the HEMATOCRIT [3] was 35.4%, the HEMOGLOBIN [3] was 13.73 G/DL and the “LEUKOCYTE COUNT” value [3] was 19.47 x10E3/uL. For the same compound, the LYMPHOCYTE [3] was 95%, the “MEAN CORPUSCULAR HEMOGLOBIN” value [3] was 23.7 pg and the “MEAN CORPUSCULAR HEMOGLOBIN CONCENTRATION” value [3] was 38.8 G/DL. For the same compound, the “MEAN CORPUSCULAR VOLUME” value [3] was 61.13 fL, the MONOCYTE [3] was 0.67% and the NEUTROPHIL [3] was 4%. The “NUCLEATED RED BLOOD CELLS” value [3] was 0 /100WBC, the “PLATELET COUNT” value [3] was 1264 x10E3/uL and the “ALANINE AMINOTRANSFERASE” value [3] was 55.33 u/L. The ALBUMIN [3] was 4.03 G/DL, the “ALKALINE PHOSPHATASE” value [3] was 436 u/L and the “ASPARTATE AMINOTRANSFERASE” value [3] was 82.33 u/L. For the same compound, the “BLOOD UREA NITROGEN” value [3] was 56 mg/dL, the “CARBON DIOXIDE” value [3] was 23.33 mmol/L and the CHLORIDE [3] was 105 MEQ/L. The CHOLESTEROL [3] was 70.67 mg/dL, the “CREATINE PHOSPHOKINASE” value [3] was 365 u/L and the CREATININE [3] was 0.42 mg/dL. For the same compound, the GLUCOSE [3] was 175.33 mg/dL, the “LACTATE DEHYDROGENASE” value [3] was 181.67 u/L and the LIPASE [3] was 10.33 u/L. It also gave a PHOSPHORUS [3] of 11.47 mg/dL, a POTASSIUM [3] of 7.6 MEQ/L and an SODIUM [3] of 140.73 MEQ/L. The “TOTAL BILIRUBIN” value [3] was 0.17 mg/dL, the “TOTAL PROTEIN” value [3] was 5.87 G/DL and the “URIC ACID” value [3] was 1.6 mg/dL.
